Reference: US12693289B2, “Application of compounds in the preparation of reagents for down-regulation of RUNX2” (Geneheal Biotechnology Co., Ltd., priority 2020, dated 2026)

How the values were obtained:
RUNX2 [1] = experiment: Computational studies and preliminary experimental studies of related disease models: Runx2 expression; conditions: general statement
RUNX2 [2] = experiment: RUNX2 protein expression by Western blot in lung cancer cells A549; assay type: cell-based
Procedure: (§1) Cells are seeded in medium dishes (6 cm), cultured overnight, when the cell confluency is 80%, the original medium is discarded, PBS rinses the cells, and then replaced with Fostamatinib containing a final concentration of 10 uM or other concentrations, after 6-12 hours, the cells are harvested, RNA and protein liquid are extracted, and the protein and mRNA expression changes of RUNX2 are detected by Western blot and qPCR experiments, respectively.

RUNX2 [3] = experiment: RUNX2 protein expression by Western blot in lung cancer cell H1299; assay type: cell-based; conditions: H1299 cells
Procedure: as §1

RUNX2 mRNA [4] = experiment: RUNX2 mRNA expression by qPCR in lung cancer cells A549; assay type: cell-based
Procedure: as §1

RUNX2 mRNA [5] = experiment: RUNX2 mRNA expression by qPCR in lung cancer cell H1299; assay type: cell-based; conditions: H1299 cells
Procedure: as §1

RUNX2 [6] = experiment: RUNX2 protein expression by Western blot in hepatoma cells BEL-7402; assay type: cell-based; conditions: BEL-7402 cells, 0, 2.5, 5 and 10 uM for 6 h, FIG. 5
Procedure: as §1

RUNX2 mRNA [7] = experiment: Animal testing (intraperitoneal injection): RUNX2 mRNA in mouse liver tissue by qPCR; assay type: in vivo, C57BL/6 male mice; conditions: mice, 40 mg/kg intraperitoneal injection, 4 consecutive days, liver collected 48 hours after last injection, FIG. 6
Procedure: • Drug: Fostamatinib MCE(HY-13038A) • Mice: 8-week-old C57BL/6 male mice • Concentration of administration: 40 mg/kg • Mode of administration: intraperitoneal injection
Experimental steps: mice are randomly divided into two groups, experimental group (fostamatinib) and control group (mock), before daily experiments, a certain amount of fostamatinib is accurately weighted and dissolve in 0.5% CMC ([…] cellulose), fully pipetted into a uniform suspension, the concentration of 4 mg/ml, and ready for use. According to the injection volume of 100 ul/10 g per mouse, the intraperitoneal injection was carried out for 4 consecutive days. The mouse liver tissue was collected 48 hours after the last injection, RNA was extracted, and the mRNA expression level of RUNX2 was detected by real-time fluorescence quantitative PCR (qPCR).

[8] = treated 6 hours, antibody changed, FIG. 3
[9] = treated 8 hours, Fostamatinib 10 uM or other concentrations, FIG. 1
[10] = treated 8 hours, Fostamatinib 10 uM or other concentrations, FIG. 2

Row | Structure (SMILES) | expression of Runx2 (RUNX2 [1]) | protein expression level of RUNX2 (RUNX2 [2]; [8]) | protein expression level of RUNX2 (RUNX2 [2]; [9]) | protein expression level of RUNX2 (RUNX2 [3]; [8]) | protein expression level of RUNX2 (RUNX2 [3]; [9]) | mRNA level of RUNX2 (RUNX2 mRNA [4]; 6 hours, FIG. 4) | mRNA expression level of RUNX2 (RUNX2 mRNA [4]; [10]) | mRNA level of RUNX2 (RUNX2 mRNA [5]; 6 hours, FIG. 4) | mRNA expression level of RUNX2 (RUNX2 mRNA [5]; [10]) | expression level of RUNX2 protein (RUNX2 [6]) | mRNA expression level of RUNX2 in liver tissue (RUNX2 mRNA [7])
1 | COc1ccc2[nH]cc(CCNC(C)=O)c2c1 [melatonin, Melatonin] | significantly down-regulate |  |  |  |  |  |  |  |  |  | 
2 | COc1cc(Nc2ncc(F)c(Nc3ccc4c(n3)N(COP(=O)(O)O)C(=O)C(C)(C)O4)n2)cc(OC)c1OC [Fostamatinib] | significantly down-regulate | down-regulated a certain trend | tends to decrease | down-regulated a certain trend | tends to decrease | significantly reduced | decreases significantly | significantly reduced | decreases significantly | significantly reduced and dose-dependent | significantly reduce
3 | CNC(=O)c1cc(Oc2ccc(NC(=O)Nc3ccc(Cl)c(C(F)(F)F)c3)c(F)c2)ccn1 [Regorafenib] | significantly down-regulate |  |  |  |  |  |  |  |  |  | 
